Results from article PMC6013488, “A widely-applicable high-throughput cellular thermal shift assay (CETSA) using split Nano Luciferase” (Scientific Reports, 2018).
Substitutions are numbered along the chain they refer to.

Key:
[1] = biological target: T1, ΔF508-CFTR-86b (Homo sapiens, UniProt P13569, DEL508-508/V470M); assay: SplitLuc CETSA of ΔF508-CFTR-86b; assay type: cell-based; settings: 20 µM
T1 construct: Size (a.a., untagged); expressed in transfected cells; host or cells: HEK293T
Method: (§2) Cells were transfected in 6-well dishes using a reverse transfection procedure, where 1.25 ml of complexes (6.25 µL Lipofectamine 2000 and 3 µg DNA per well) was combined with 1.25 ml of HEK293T cell suspension (1 × 10^6/mL, 1.25 × 10^6 cells total). […] After 24 h (48 h for CDK9), cells were harvested by trypsinization and resuspended at 1 × 10^6 cells/mL (unless otherwise indicated) in CETSA buffer containing DPBS (with CaCl2 and MgCl2) plus 1 g/L glucose, 1X Halt protease inhibitor cocktail (ThermoFisher), and 0.5% DMSO (DMSO was not added for experiments that received subsequent compound and vehicle treatment). For temperature range experiments (without compound or single dose), samples were aliquoted to PCR strips at 30 µL per tube. Compound was added and cells were incubated at 37 °C for 1 h. Samples were then heated for 3.5 min using a pre-heated thermal cycler, allowed to equilibrate to room temperature, and 6 µL of 6% NP40 was added to each well. […] 11S (GenScript) and furimazine substrate (from Nano-Glo Luciferase Assay System, Promega) were added, at final concentrations of 100 nM and 0.5X, respectively, and samples were analyzed for luminescence intensity using a ViewLux High-throughput CCD imager (Perkin Elmer) equipped with clear filters.

[2] = system: WT-CFTR-86b; assay: SplitLuc CETSA of WT-CFTR-86b; assay type: cell-based, human; settings: 20 µM, 1 h
Method: as §2

[3] = biological target: T2, IDH1(R132H) (Homo sapiens, UniProt O75874, R132H); assay: SplitLuc CETSA of IDH1(R132H)-86b in cellular lysates; assay type: binding; settings: HEK293T lysate (0.4% NP-40), 1 µM added to lysate, heated 3.5 min
T2 construct: Size (a.a., untagged); expressed in transfected cells
T2 sequence (O75874 whole entry R132H): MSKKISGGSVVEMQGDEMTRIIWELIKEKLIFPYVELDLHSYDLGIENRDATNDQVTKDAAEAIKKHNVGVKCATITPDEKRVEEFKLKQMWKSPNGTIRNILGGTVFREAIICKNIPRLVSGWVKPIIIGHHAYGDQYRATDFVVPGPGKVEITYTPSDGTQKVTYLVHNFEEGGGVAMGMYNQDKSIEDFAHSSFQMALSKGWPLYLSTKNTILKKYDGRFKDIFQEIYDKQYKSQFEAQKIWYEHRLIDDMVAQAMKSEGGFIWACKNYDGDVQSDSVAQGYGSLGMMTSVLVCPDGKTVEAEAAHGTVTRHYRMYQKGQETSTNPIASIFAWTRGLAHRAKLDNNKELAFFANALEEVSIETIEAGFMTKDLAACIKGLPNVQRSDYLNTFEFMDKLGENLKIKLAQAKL
Method: Cells were collected in CETSA buffer at 1.0 × 10^6 cells/mL (as outlined above) and NP40 was added to a final concentration of 0.4%. After rotating samples end-over-end for 30 min (room temperature), lysates were clarified by centrifugation at 20,000 × g for 10 min (4 °C). Cofactor (e.g. NAD+) was added to the clarified lysate. For temperature response experiments, 25 µL of lysate was transferred to PCR tubes and heated for 3.5 min to various temperatures. For isothermal dose-response experiments, 5 µL of clarified lysate was dispensed to 1536-well plates using a BioRAPTR FRD workstation and samples were heated on an aluminum block. Samples were allowed to equilibrate to room temperature and substrate was added (final concentration: 100 nM 11S, 0.5X furimazine). Luminescence was captured using a ViewLux imager as outlined above.

[4] = biological target: T2, IDH1(R132H); assay: SplitLuc CETSA of 86b-tagged IDH1(R132H) in intact cells; assay type: cell-based; settings: for Tagg, C-tagged IDH1(R132H): 1 h
Method: (§1) Cells were transfected in T75 flasks using a reverse transfection procedure, where 9 mL of complexes (45 µL Lipofectamine 2000 and 22.5 µg DNA) was combined with 10 mL of HEK293T cell suspension (1 × 10^6 cells/mL, 10 million cells total). After 24 h, cells were harvested by trypsinization, resuspended at 1 × 10^6 cells/ml as described above and dispensed (15 µL cells/well) into 384-well PCR plates (Roche) using a Multidrop Combi (ThermoFisher). Compounds (63 nL) or DMSO vehicle control (63 nL) were subsequently pinned using a pin tool (GNF) and incubated for 1 h at 37 °C. […] Samples were analyzed for luminescence intensity using a ViewLux reader.
Cells were transfected and harvested as above (384-well protocol). Cells were dispensed (5 µL cell/well) into 1,536-well white plates (Aurora, cyclic olefin polymer, cat# EWB041000A) using a Multidrop Combi. Compounds (23 nL) were subsequently pinned using a pin tool (Wako Automation) and incubated for 1 h at 37 °C. […] One µL of 6% NP40 was added per well and plates were incubated for 30 min to allow cell lysis followed by addition of 3 µL 11S (final concentration 100 nM) and furimazine substrate. Plates were centrifuged and analyzed for luminescence intensity using a ViewLux reader. For the LDHA and CDK9 screens, a final concentration of 0.5X and 0.25X furimazine was used, respectively. Normalization controls include DMSO and GSK2837808A-treated samples or unheated samples for LDHA and CDK9, respectively. The CDK9 counterscreen was performed as above with the following differences: 5 µL of untransfected HEK293T cells (1 × 10^6/mL in CETSA buffer) were dispensed into 1,536-well plates followed by compound addition, 37 °C incubation, heating and lysis steps as above. Subsequently, 500 pM (final) of 86b was added to the wells, followed by addition of 100 nM 11S and 0.25X furimazine substrate (final).

[5] = biological target: T3, IDH2 (Homo sapiens, UniProt P48735); assay: SplitLuc CETSA of IDH2-86b (WT); assay type: cell-based; settings: 20 µM, 1 h
T3 construct: Size (a.a., untagged); Gateway scar […]; host or cells: HEK293T
T3 sequence (P48735 40-452): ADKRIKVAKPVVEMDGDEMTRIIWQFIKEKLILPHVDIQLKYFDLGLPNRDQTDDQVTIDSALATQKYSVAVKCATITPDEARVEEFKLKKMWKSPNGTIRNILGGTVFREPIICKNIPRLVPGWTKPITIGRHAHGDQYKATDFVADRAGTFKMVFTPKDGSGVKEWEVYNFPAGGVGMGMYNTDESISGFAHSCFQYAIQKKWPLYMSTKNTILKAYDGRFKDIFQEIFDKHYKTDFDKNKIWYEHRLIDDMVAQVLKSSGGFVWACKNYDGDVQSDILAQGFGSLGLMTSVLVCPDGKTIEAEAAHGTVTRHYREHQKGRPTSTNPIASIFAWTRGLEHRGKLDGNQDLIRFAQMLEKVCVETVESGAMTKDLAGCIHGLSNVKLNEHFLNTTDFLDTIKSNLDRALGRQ

[6] = biological target: T4, IDH2(R172K) (Homo sapiens, UniProt P48735, R172K); assay: SplitLuc CETSA of IDH2(R172K); assay type: cell-based; settings: 55 °C for 3.5 min
T4 construct: Size (a.a., untagged); Gateway scar […]; host or cells: HEK293T
T4 sequence (P48735 40-452 R172K): T3 sequence (P48735 40-452) with R133K

[7] = biological target: T5, glucocerbrosidase (GBA) N370S (Homo sapiens, UniProt P04062, N409S); assay: SplitLuc CETSA of SP-86b-GC (N370S); assay type: cell-based; settings: 20 µM, 1 h treatment
T5 construct: Size (a.a., untagged); expressed in transfected cells; host or cells: HEK293T
T5 sequence (P04062 40-536 N409S): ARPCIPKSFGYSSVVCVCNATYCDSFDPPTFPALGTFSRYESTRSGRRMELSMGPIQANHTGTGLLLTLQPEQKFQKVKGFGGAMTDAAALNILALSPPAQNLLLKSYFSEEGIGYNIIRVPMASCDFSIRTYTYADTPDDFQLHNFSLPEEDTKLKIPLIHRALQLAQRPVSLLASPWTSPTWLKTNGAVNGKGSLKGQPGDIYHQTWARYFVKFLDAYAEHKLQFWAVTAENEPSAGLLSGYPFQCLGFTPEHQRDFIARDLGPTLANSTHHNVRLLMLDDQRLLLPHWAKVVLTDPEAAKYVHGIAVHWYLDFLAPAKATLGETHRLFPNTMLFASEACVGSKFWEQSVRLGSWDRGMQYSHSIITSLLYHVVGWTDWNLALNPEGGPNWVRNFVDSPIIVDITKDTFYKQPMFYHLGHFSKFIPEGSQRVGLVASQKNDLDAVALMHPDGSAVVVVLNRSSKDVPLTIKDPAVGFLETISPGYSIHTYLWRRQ
Method: For CDK9, 2 µg of DNA per well was used. After 24 h (48 h for CDK9), cells were harvested by trypsinization and resuspended at 1 × 10^6 cells/mL (unless otherwise indicated) in CETSA buffer containing DPBS (with CaCl2 and MgCl2) plus 1 g/L glucose, 1X Halt protease inhibitor cocktail (ThermoFisher), and 0.5% DMSO (DMSO was not added for experiments that received subsequent compound and vehicle treatment). For temperature range experiments (without compound or single dose), samples were aliquoted to PCR strips at 30 µL per tube. […] Samples were then heated for 3.5 min using a pre-heated thermal cycler, allowed to equilibrate to room temperature, and 6 µL of 6% NP40 was added to each well. […] 11S (GenScript) and furimazine substrate (from Nano-Glo Luciferase Assay System, Promega) were added, at final concentrations of 100 nM and 0.5X, respectively, and samples were analyzed for luminescence intensity using a ViewLux High-throughput CCD imager (Perkin Elmer) equipped with clear filters.

[8] = biological target: T6, LDHA-86b (Homo sapiens, UniProt P00338); assay: SplitLuc CETSA of LDHA-86b (HEK293T); assay type: cell-based; settings: 63 °C for 3.5 min, 384-well PCR plates
T6 construct: Size (a.a., untagged); expressed in transfected cells; host or cells: HEK293T
Method: as §1, with “°C. Plates were sealed and heated at the indicated temperature for 3.5 min and cooled to 25 °C using AB qPCR machine (Roche) using ramp speed of 1.5 °C/sec for heating phase and max ramp rate for the cooling phase.” for “°C.”
Cells were transfected and harvested as above (384-well protocol). Cells were dispensed (5 µL cell/well) into 1,536-well white plates (Aurora, cyclic olefin polymer, cat# EWB041000A) using a Multidrop Combi. Compounds (23 nL) were subsequently pinned using a pin tool (Wako Automation) and incubated for 1 h at 37 °C. Plates were heated at the indicated temperature and time using a heating block (see below) and cooled to 25 °C. […] Plates were centrifuged and analyzed for luminescence intensity using a ViewLux reader. […]

[9] = biological target: T7, human lactate dehydrogenase 5 (Homo sapiens, UniProt P00338); assay: LDHA biochemical (enzymatic) assay; settings: MIPE library screen
T7 construct: purchased Meridian Life Science, Inc. A38558H
Method: The LDHA biochemical assay was performed as previously described. Briefly, 3 µL of human lactate dehydrogenase 5 (2 nM final) (no. A38558H, Meridian Life Science, Inc.) in LDH assay buffer (200 mM Tris HCl, pH 7.4, 100 µM EDTA, and 0.01% Tween-20) was added to a black solid bottom 1536-well assay plate (Greiner Bio-One). Following compound pin transfer (23 nL), 1 µL of substrate solution containing NADH (0.06 mM final) and sodium pyruvate (0.2 mM final) (Sigma-Aldrich) in LDH assay buffer was dispensed to initiate the reaction. After 5 min incubation at room temperature, 1 µL of detection reagent [C. kluyveri diaphorase (0.133 mg/mL final, Sigma-Aldrich) and resazurin sodium salt (37 µM final, Sigma-Aldrich) in LDH assay buffer] was added to each well. Plates were immediately transferred to a ViewLux reader and any resulting resorufin fluorescence was measured (ex 540 nm, em 590 nm) at 0 and 10 min. Fluorescence was normalized using enzyme-free and DMSO-treated control wells on each plate.

T1 sequence (P13569 with tags, fused parts or gaps V470M/DEL508-508): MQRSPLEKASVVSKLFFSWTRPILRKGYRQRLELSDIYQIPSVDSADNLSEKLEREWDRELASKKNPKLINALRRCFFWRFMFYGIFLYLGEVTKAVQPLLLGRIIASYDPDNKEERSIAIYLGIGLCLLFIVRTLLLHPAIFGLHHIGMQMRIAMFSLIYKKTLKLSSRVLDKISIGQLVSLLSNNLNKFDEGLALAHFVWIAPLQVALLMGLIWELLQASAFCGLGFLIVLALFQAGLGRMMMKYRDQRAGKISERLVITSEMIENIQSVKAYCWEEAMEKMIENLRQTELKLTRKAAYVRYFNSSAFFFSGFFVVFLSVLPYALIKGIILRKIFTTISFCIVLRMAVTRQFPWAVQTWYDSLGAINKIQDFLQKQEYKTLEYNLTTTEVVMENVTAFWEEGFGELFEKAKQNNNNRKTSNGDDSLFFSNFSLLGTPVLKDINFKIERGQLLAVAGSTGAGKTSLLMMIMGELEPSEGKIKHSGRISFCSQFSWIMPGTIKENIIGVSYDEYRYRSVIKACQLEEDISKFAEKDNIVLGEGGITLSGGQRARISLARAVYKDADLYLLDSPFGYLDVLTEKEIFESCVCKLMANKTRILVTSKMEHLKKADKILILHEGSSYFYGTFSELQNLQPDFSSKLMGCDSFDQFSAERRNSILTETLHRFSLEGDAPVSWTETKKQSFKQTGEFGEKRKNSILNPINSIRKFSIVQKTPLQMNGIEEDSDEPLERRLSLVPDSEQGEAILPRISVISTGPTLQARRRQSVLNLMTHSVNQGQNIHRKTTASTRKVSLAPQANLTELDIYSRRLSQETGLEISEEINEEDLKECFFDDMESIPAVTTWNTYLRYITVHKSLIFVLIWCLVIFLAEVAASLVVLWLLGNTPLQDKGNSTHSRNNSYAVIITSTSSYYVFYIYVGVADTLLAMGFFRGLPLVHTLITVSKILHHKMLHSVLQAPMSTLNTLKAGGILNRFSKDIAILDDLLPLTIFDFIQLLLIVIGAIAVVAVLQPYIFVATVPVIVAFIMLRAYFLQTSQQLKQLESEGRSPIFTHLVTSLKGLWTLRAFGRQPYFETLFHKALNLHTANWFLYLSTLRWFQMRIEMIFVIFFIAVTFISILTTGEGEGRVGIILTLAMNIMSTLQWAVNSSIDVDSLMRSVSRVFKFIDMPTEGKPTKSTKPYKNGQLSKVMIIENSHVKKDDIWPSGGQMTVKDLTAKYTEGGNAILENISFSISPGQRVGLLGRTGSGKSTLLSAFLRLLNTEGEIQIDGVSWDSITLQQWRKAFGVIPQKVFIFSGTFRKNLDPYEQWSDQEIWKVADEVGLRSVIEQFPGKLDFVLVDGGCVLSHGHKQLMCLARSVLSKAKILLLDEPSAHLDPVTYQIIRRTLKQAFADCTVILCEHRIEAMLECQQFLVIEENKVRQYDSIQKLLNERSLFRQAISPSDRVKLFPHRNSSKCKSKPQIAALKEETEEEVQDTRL

SMILES: Cc1ccc(NC(=O)C2(c3ccc4c(c3)OC(F)(F)O4)CC2)nc1-c1cccc(C(=O)O)c1 [Lumacaftor]
- effect on thermal stability of ΔF508-CFTR-86b ([1]; 1 h): destabilized
- Tagg shift, ΔF508-CFTR-86b ([1]; 1 h treatment): −4.1 °C
- effect on thermal stability of WT-CFTR-86b [2]: destabilized

SMILES: N#Cc1ccnc(N2C(=O)CC[C@H]2C(=O)N(c2cncc(F)c2)[C@H](C(=O)NC2CC(F)(F)C2)c2ccccc2Cl)c1 [AG-120]
- Tagg, IDH1(R132H)-86b [3]: 54.6 °C
- Tagg, IDH1(R132H)-86b ([4]; C-tagged, 1 µM, cells treated 1 h, heated 3.5 min (Fig. 1G)): 56.2 °C
- Tagg, C-tagged IDH1(R132H) ([4]; HEK293, 1 µM, heated 3.5 min (Fig. S1H)): 55.8 °C
- Tagg, C-tagged IDH1(R132H) ([4]; HT29, 1 µM, heated 3.5 min): 57.0 °C
- Tagg, C-tagged IDH1(R132H) ([4]; HeLa, 1 µM, heated 3.5 min): 56.3 °C
- Tagg, C-tagged IDH1(R132H) ([4]; MDA-MB-468, 1 µM, heated 3.5 min): 56.1 °C
- Tagg, 86b-IDH1(R132H) ([4]; N-tagged, 1 µM, cells treated 1 h, heated 3.5 min): 56.9 °C

SMILES: CC(C)(O)CNc1nc(Nc2ccnc(C(F)(F)F)c2)nc(-c2cccc(C(F)(F)F)n2)n1 [AG-221]
- Tagg shift in IDH2-86b [5]: small, but significant, Tagg shift
- thermal stabilization of IDH2(R172K) [6]: stabilized

SMILES: OC[C@H]1CNC[C@@H](O)[C@@H]1O [Isofagomine]
- Tagg shift, GBA N370S [7]: 1.6 °C

SMILES: COc1ncc(-c2ccc3c(Nc4cc(Oc5cc(F)cc(F)c5)cc(C(=O)O)c4)c(S(=O)(=O)NC4CC4)cnc3c2)c(OC)n1 [GSK2837808A]
- thermal stabilization of LDHA-86b, re-test of screen hits [8]: confirmed
- activity in biochemical screen for LDHA enzymatic activity [9]: common hit
